# Data as given in patent publication US20050043264A1, “Methods of inhibiting neurodegenerative disease” (priority 2003, published 2005).
# Entries after “also recorded” stand apart in the source; their conditions may differ. Structures can show the parent of a compound that is named as a salt.
# Tests used:
# Dp35 = Dp35 cleavage in HA-tagged Dp35 transfected BG2-c2 cells (anti-HA immunoblot); type: cell-based, Drosophila melanogaster; conditions: BG2-c2 cells with HA-tagged Dp35, A23187 with 5 μM CaCl2, 24 hours
# Excerpt: Like Abl, p35 is conserved in Drosophila and functions to modulate Cdk5 activity during neurite outgrowth (Connell-Crowley et al., 2000, Curr. Biol. 10:599). In the AD brain, mammalian p35 is cleaved into p25 by calpain to deregulate Cdk5 (Lee et al., 2000, Nature 405:360). Although a putative calpain is also present in Drosophila (Jekely and Friedrich, 1999, J. Biol. Chem. 274:23893), the consensus calpain cleavage site is absent in Drosophila p35 (Dp35) (FIG. 5A). Therefore, it was unclear whether Dp35 would be converted into p25 upon Aβ42 stimulation. To investigate this possibility, carboxyl-terminal HA-tagged Dp35 was transfected into BG2-c2 cells before treating them with Aβ42or A23187/Ca^2+ (calcium ionophore). […] To analyze the Dp35 cleavage in vivo, transgenic flies co-expressing Dp35 and Aβ42 in the developing eyes were generated using a gmr-GAL4 driver. Consistent with the in vitro result, no visible cleavage or reduction of the Dp35 protein in the Aβ42 transgenic flies were observed (FIG. 5B, right panel).
# Cdk5-pY15 [1] = assay: Cdk5-pY15 in Aβ42-treated IMR-32 cells (immunoblot); type: cell-based, human; conditions: Aβ42 (20 μM) 24 hours, STI571 pretreatment 24 hours
# Protocol: (§1) Cell lysate was produced in lysis buffer or extract buffer (Juang and Hoffmann,1999, Oncogene 18:5138) for Cdk5 immunoprecipitation. Proteins were analyzed by direct Western blotting (30 μg/lane) or blotting after immunoprecipitation (1˜2 mg/immunoprecipitation). Immunoprecipitates were collected by binding to protein G PLUS/Protein A-Agarose (Oncogene Research Products, Nottingham UK). The antibodies used are listed below: anti-Cdk5 antibody (clone DC17), (Upstate, Charlottesville, Va.); sc-750, (Santa Cruz Biotechnology, Inc., Santa Cruz Calif.), anti-Cdk5-pY15 antibody (sc-1 2919),(Santa Cruz Biotechnology, Inc., Santa Cruz C), anti-HA antibody (BAbCO, Berkely, Calif.), anti-p35 antibody (sc-820), (Santa Cruz Biotechnology, Inc., Santa Cruz Calif.), and affinity-purified Ena polyclonal antibody (generated by Dr. F. M. Hoffmann' Lab) (McArdle Laboratory for Cancer Research and Laboratory of Genetics, University of Wisconsin-Madison) ECL detection reagent (NEN, Boston, Mass.) was used to detect the immunoreactive proteins.
# (§2) To determine if the role of Abl in Drosophila neurodegeneration is conserved in mammals, Abl kinase activity in Aβ42-induced mammalian neuronal apoptosis was investigated. […] Formation of p25 has been considered a causative agent that contributes to the deregulation of Cdk5 in human AD (Lee et al., 2000, Nature 405:360; Patrick et al., 1999, Nature 402:615). […]
# p35 = assay: Cleavage of p35 into p25 in Aβ42-treated IMR-32 cells (immunoblot); type: cell-based, human; conditions: Aβ42 (20 μM) 24 hours, STI571 pretreatment 24 hours
# Protocol: as §1, §2
# Cdk5 [2] = assay: Cdk5 kinase activity in Aβ42-treated IMR-32 cells (histone H1 kinase assay); type: cell-based, human; conditions: Aβ42 (20 μM) 24 hours, STI571 pretreatment 24 hours
# Protocol: (§3) A kinase assay was performed by washing immunoprecipitates three times with kinase reaction buffer (50 mM HEPES [pH 7.0], 10 mM MgCl2, and 1 mM DTT). The beads with target proteins were incubated with kinase reaction buffer containing 2 μg of substrate (histone H1)(Calbiochem, San Diego, Calif.) and 10 μCi of ^33Pγ-ATP in a final volume of 40 μl at 30° C. for 30 minutes.
# (§4) To determine if the role of Abl in Drosophila neurodegeneration is conserved in mammals, Abl kinase activity in Aβ42-induced mammalian neuronal apoptosis was investigated. […] Formation of p25 has been considered a causative agent that contributes to the deregulation of Cdk5 in human AD (Lee et al., 2000, Nature 405:360; Patrick et al., 1999, Nature 402:615). […] Thus, it was important to determine whether the conversion of p35 into p25 is sufficient to deregulate Cdk5 activity while Abl activation is inhibited. […] The cells were then assayed for Cdk5 kinase activity and Y-15 phosphorylation.
# IMR-32 cells = assay: Neuronal viability, Aβ42-induced IMR-32 neuronal death; type: cell-based, human; conditions: IMR-32 cells pretreated 24 hours with STI571, then Aβ42 24 or 72 hours
# Protocol: (§5) The modified MTT assay (Sigma, St Louis, Mo.) was used to quantify neuronal cell viability (Lee et al., 2000, Nature 405:360). The intensities were measured using an optical density reader (SpectroMAXplus, Molecular Devices, Sunnyvale, Calif.) at 570 nm (background: 630 nm) and proportionally represented the viable cell numbers.
# as §4
# BG2-c2 neuronal cells = assay: Cdk5 subcellular translocalization by immunostaining and confocal microscopy; type: cell-based, Drosophila melanogaster; conditions: 2 μM Aβ42 one hour, agent given simultaneously with or before Aβ42 (BL-1 5 μM)
# BG2-c2 cells = assay: Modified MTT cell viability assay, Aβ42-induced neuronal death; type: cell-based, Drosophila melanogaster; conditions: BG2-c2 cells treated with Aβ42; dsRNA transfected two days before Aβ42 for 24 hours
# Protocol: as §5
# Cdk5-pY15 [3] = assay: Cdk5-Y15 phosphorylation (Cdk5-pY15) immunoblot, BG2-c2 cells; type: cell-based, Drosophila melanogaster; conditions: Aβ42 (2 μM)-treated BG2-c2 cells; STI571 20 μM 60 minutes; dsRNA 20 μg/2×10^6 cells two days before Aβ42
# Protocol: To understand the role of Drosophila Cdk5 in neurodegeneration, the phosphorylation of Cdk5-Y15 was investigated to determine if it was correlated with the pathological activation of Cdk5 in neuronal cells. Cdk5-Y15 phosphorylation (Cdk5-pY15) levels in BG2-c2 cells were examined over time following treatment with 2 μM Aβ42. The presence of […] in the immunoprecipitates was shown by immunoblotting with an anti-phospho antibody specific for Cdk5-pY15. Within 60 minutes, Aβ42 caused an elevation of Cdk5-pY15, which was coincident with an increase in Cdk5 kinase activity (FIG. 4A). […] Moreover, dsRNA-abl (20 μg/2×10^6 cells) was transfected into BG2-c2 cells to reduce Abl expression two days before Aβ42 treatment.
# Cdk5 [4] = assay: In vitro Cdk5 kinase assay of immunoprecipitates with histone H1 as substrate, BG2-c2 cells; type: cell-based, Drosophila melanogaster; conditions: for Abl kinase activity regulation, used to confirm Abl requirement for modulation of Cdk5 kinase: BG2-c2 cells, other Abl kinase regulating agents
# Protocol: as §3
# Whether Cdk5 was activated in the Abl-Cdk5 complex was also investigated. Cdk5 was immunoprecipitated from the cell lysate for an vitro kinase assay, using histone H1 as a substrate (Connell-Crowley et al., 2000, Curr. Biol. 10:599). Similar to results reported for mammalian cells (Alvarez et al., 2001, Exp. Cell Res. 264:266), Drosophila Cdk5 kinase activity was elevated following Aβ42 treatment as compared to controls (FIG. 2B, bottom panel). […] Moreover, other Abl kinase regulating agents including doxorubicin (DX) and erbstatin analog (EA) were used to activate or suppress Abl kinase activity, respectively, and confirmed that Abl kinase activity was required for modulation of Cdk5 kinase.
structure (smiles),measurement,setting,value
CNc1ccc2oc(C[C@H]3O[C@@]4(CC[C@H]3C)O[C@H]([C@H](C)C(=O)c3ccc[nH]3)[C@H](C)C[C@H]4C)nc2c1C(=O)O [A23187],Dp35 cleavage / Dp35 protein levels,Dp35,no noticeable cleavage or reduction; also recorded: no detectable cleavage or reduction
CCCC[C@@H](C=O)NC(=O)[C@H](CC(C)C)NC(=O)OCc1ccccc1 [Calpeptin],Cdk5-pY15 (Y15 phosphorylation),Cdk5-pY15 [1],did not diminish
same,Cleavage of p35 into p25 (formation of p25),p35,blockade of p35 cleavage
same,Cdk5 kinase activity,Cdk5 [2],considerably reduced
"Cc1ccc(NC(=O)c2ccc(CN3CCN(C)CC3)cc2)cc1Nc1nccc(-c2cccnc2)n1 [STI571, imatinib mesylate]",Cdk5-pY15 (Y15 phosphorylation),Cdk5-pY15 [1],abolished; also recorded: suppressed
same,Aβ42-induced IMR-32 neuronal death (neuronal viability),IMR-32 cells,rescued the neuronal death; also recorded: effectively suppressed
same,Aβ42-stimulated Cdk5 translocalization to the perinuclear cytoplasm,BG2-c2 neuronal cells,markedly suppressed; also recorded: no Abl or Cdk5 protein translocalization to perinuclear region
same,"Aβ42-induced neuronal death (neuronal viability, MTT)",BG2-c2 cells,rescued Aβ42-induced neuronal death; also recorded: suppressed
same,Cdk5-pY15 (Cdk5-Y15 phosphorylation),Cdk5-pY15 [3],diminished; also recorded: reduced
same,Cdk5 kinase activity (histone H1 phosphorylation),"Cdk5 [4]; Aβ42 (2 μM)-treated BG2-c2 cells, STI571 20 μM 60 minutes, dsRNA 20 μg/2×10^6 cells two days before Aβ42",sharply diminished; also recorded: reduced
same,Cdk5 kinase activity,Cdk5 [2],abolished; also recorded: suppressed
COc1cccc2c1C(=O)c1c(O)c3c(c(O)c1C2=O)C[C@@](O)(C(=O)CO)C[C@@H]3O[C@H]1C[C@H](N)[C@H](O)[C@H](C)O1 [doxorubicin],"Abl kinase activity regulation, used to confirm Abl requirement for modulation of Cdk5 kinase",Cdk5 [4],activate
"COC(=O)C=Cc1cc(O)ccc1O [erbstatin analog, 2,5-dihydroxymethylcinnamate]","Abl kinase activity regulation, used to confirm Abl requirement for modulation of Cdk5 kinase",Cdk5 [4],suppress
